Patent US6399662B1, “Method and composition for the treatment of diarrhea and gastrointestinal spasms” (University of Florida, priority 2000, dated 2002)
Structures can show the parent of a compound that is named as a salt.

Key:
small intestine = conditions: rats; previously reported; cited from earlier work
[1] = test system: stress-induced irritable bowel syndrome in rats; assay: Stress-induced irritable bowel syndrome in rats; assay type: in vivo, rat (Sprague-Dawley); conditions: for stool output: 30 min before stress, 6-h collection period; for % reduction (stool output): vs control (0 mg/kg), (1.0-T/C) × 100
Protocol: Male Sprague-Dawley rats (200-350 g, Harlan Sprague-Dawley, Indianapolis, Ind.) were housed in hanging wire cages in a temperature- and humidity-controlled room with a 12hour light/dark cycle; the animals were fasted overnight (unless non-fasted rats were utilized in experiments involving PO administration) and allowed free access to water. Animal care and experimental procedures were approved by the Institutional Animal Care and Use Committee. A typical experiment involved 20 rats: 5 untreated controls and 5 pretreated with polyamine analogues at each of three doses as either a SC injection or a PO gavage 30 min prior to commencement of the stress. All animals were then housed in individual polycarbonate cages containing a clear 70×50 mm Pyrex crystallization dish inverted in the center. To begin the stress, water was added to each cage to within 0.5 cm of the top of the Pyrex dish. The fecal output of the animals was recorded at 30-min intervals for a 6-h period, during which they received no food or water. Stool output was expressed as the number of fecal pellets excreted over the 6-h collection period. Percent reduction was calculated by dividing the mean value from the treated animals (T) by the mean value from the control animals (C), subtracting the resulting quotient from 1.0, and multiplying by 100 [i.e., (1.0−T/C)×100].

[2] = test system: castor oil-induced diarrhea in rats; assay: Castor oil-induced diarrhea in rats; assay type: in vivo, rat (Sprague-Dawley); conditions: for weight loss: 30 min before castor oil 5 mL/kg, 6-h period; for stool output: 30 min before castor oil, 6-h collection period; for % reduction (weight loss) / % reduction (stool output): vs control (0 mg/kg); for % reduction (weight loss): (1.0-T/C) × 100
Protocol: Male Sprague-Dawley rats (350-400 g, Harlan Sprague-Dawley, Indianapolis, Ind.) were fasted overnight in hanging wire cages and allowed free access to water. A typical experiment involved 20 rats: 5 untreated controls and 5 pretreated with polyamine analogues at each of three doses (typically equivalent on a molar basis to 1, 5, 10, or 25 mg/kg of DEHSPM) as either a sc injection or a po gavage 30 min prior to castor oil. All animals were then challenged with castor oil (purchased from a local drugstore) as a gastric gavage of 5 mL/kg of body weight at t=0 and monitored for the onset and duration of diarrhea at 30-min intervals for a 6-h period during which they received no food or water (Eaker, E. Y.; Bixler, G. B.; Mathias, J. R., J. Pharm Exp. Ther. 1988, 246, 786-789). Onset of diarrhea for the control rats was between 30 and 90 min and lasted for at least 6 h. The animal weight and stool weight were recorded at 2, 4, and 6 h.

[3] = dog; compared with 2-3 weeks in mice; cited from earlier work
[4] = mice; HSPM formed by N-deethylation of DEHSPM; cited from earlier work
[5] = sc 0.03125 mg/kg (0.0726 μmol/kg)

## CCNCCCCNCCCCNCCCCNCC [DEHSPM, N^1, N^14 diethylhomospermine]
Small intestine
  myoelectric activity and transit of the small intestine (in words): inhibited

## CCNCCCN[C@H]1CC[C@H](NCCCNCC)CC1 [CHX(3,4,3)-trans, N,N′-Bis[3-(ethylamino)propyl]-trans-1,4-cyclohexanediamine tetrahydrochloride]
[1]; oral, doses ≧5 mg/kg, P≦0.001
  fecal output after oral administration (in words): diminished fecal output
[1]; [5]
  stool output: 5.4 ± 2.1 number of fecal pellets
[1]; sc 0.03125 mg/kg
  % reduction (stool output): 52.2%
[1]; sc 0.0625 mg/kg (0.145 μmol/kg)
  stool output: 2.2 ± 1.3 number of fecal pellets
[1]; sc 0.0625 mg/kg
  % reduction (stool output): 80.5%
[1]; sc 0.125 mg/kg (0.29 μmol/kg)
  stool output: 0.6 ± 0.9 number of fecal pellets
[1]; sc 0.125 mg/kg
  % reduction (stool output): 94.7%
[1]; sc 0.25 mg/kg (0.58 μmol/kg)
  stool output: 0 ± 0 number of fecal pellets
[1]; sc 0.25 mg/kg
  % reduction (stool output): 100%
[1]; sc 0.5 mg/kg (1.16 μmol/kg)
  stool output: 0 ± 0 number of fecal pellets
[1]; sc 0.5 mg/kg
  % reduction (stool output): 100%
[1]; sc 0.99 mg/kg (2.3 μmol/kg)
  stool output: 0 ± 0 number of fecal pellets
[1]; sc 0.99 mg/kg
  % reduction (stool output): 100%
[1]; sc, doses ranging from 0.03 mg/kg to 0.99 mg/kg, all dose levels, P<0.001
  reduction in fecal output (in words): significant reduction in fecal output
[2]; sc 0.0078 mg/kg (0.0181 μmol/kg)
  weight loss: 8.8 ± 1.2 g of weight lost per 350 g of rat weight
[2]; sc 0.0078 mg/kg
  stool output: 3.6 ± 1.3 g of stool excreted per 350 g of rat weight
  % reduction (weight loss): 24%
[2]; sc 0.0156 mg/kg (0.036 μmol/kg)
  weight loss: 3.1 ± 1.2 g of weight lost per 350 g of rat weight
[2]; sc 0.0156 mg/kg
  stool output: 0.4 ± 0.9 g of stool excreted per 350 g of rat weight
  % reduction (stool output): 92%
  % reduction (weight loss): 73%
[2]; [5]
  weight loss: 4.2 ± 1.7 g of weight lost per 350 g of rat weight
[2]; sc 0.03125 mg/kg
  stool output: 0 ± 0 g of stool excreted per 350 g of rat weight
  % reduction (stool output): 100%
  % reduction (weight loss): 64%
[2]; sc 0.125 mg/kg (0.29 μmol/kg)
  weight loss: 4.1 ± 0.7 g of weight lost per 350 g of rat weight
[2]; sc 0.125 mg/kg
  stool output: 0 ± 0 g of stool excreted per 350 g of rat weight
  % reduction (stool output): 100%
  % reduction (weight loss): 65%
[2]; sc 0.25 mg/kg (0.58 μmol/kg)
  weight loss: 2.7 ± 0.7 g of weight lost per 350 g of rat weight
[2]; sc 0.25 mg/kg
  stool output: 0 ± 0 g of stool excreted per 350 g of rat weight
  % reduction (stool output): 100%
  % reduction (weight loss): 77%
[2]; sc 0.5 mg/kg (1.16 μmol/kg)
  weight loss: 2.9 ± 0.1 g of weight lost per 350 g of rat weight
[2]; sc 0.5 mg/kg
  stool output: 0 ± 0 g of stool excreted per 350 g of rat weight
  % reduction (stool output): 100%
  % reduction (weight loss): 75%
[2]; sc 0.625 mg/kg (0.145 μmol/kg)
  weight loss: 3.7 ± 0.8 g of weight lost per 350 g of rat weight
  stool output: 0 ± 0 g of stool excreted per 350 g of rat weight
  % reduction (stool output): 100%
  % reduction (weight loss): 68%
[2]; sc 0.99 mg/kg (2.3 μmol/kg)
  weight loss: 2.7 ± 1.3 g of weight lost per 350 g of rat weight
[2]; sc 0.99 mg/kg
  stool output: 0 ± 0 g of stool excreted per 350 g of rat weight
  % reduction (stool output): 100%
  % reduction (weight loss): 77%
[2]; sc 4.97 mg/kg (11.6 μmol/kg)
  weight loss: 1.6 ± 1.1 g of weight lost per 350 g of rat weight
[2]; sc 4.97 mg/kg
  stool output: 0 ± 0 g of stool excreted per 350 g of rat weight
  % reduction (stool output): 100%
  % reduction (weight loss): 86%
[2]; sc 24.87 mg/kg (57.8 μmol/kg)
  weight loss: 0.8 ± 0.7 g of weight lost per 350 g of rat weight
[2]; sc 24.87 mg/kg
  stool output: 0 ± 0 g of stool excreted per 350 g of rat weight
  % reduction (stool output): 100%
  % reduction (weight loss): 93%
[2]; sc doses of 0.0156 mg/kg to 24.9 mg/kg, P<0.001 for all doses
  stool output relative to controls (in words): significantly decreased stool output
[2]; sc, doses ranging from 0.0078 mg/kg to 24.9 mg/kg, all dose levels, P<0.005 to P<0.001
  reduction in weight loss (in words): significant reduction in weight loss

## NCCCCNCCCCNCCCCN [HSPM, homospermine]
[3]
  half life (in words): even longer
[4]
  half life: 2-3 weeks
